From US10947188B2, “Small molecule ferroptosis inducers” (THE TRUSTEES OF COLUMBIA UNIVERSITY IN THE CITY OF NEW YORK, priority 2016, dated 2021)
≈ marks a conversion by molar mass, not a printed value.

Tested on: HT-1080 cells
Test: Lethality of commercially available CIL41/70 structural analogs
Type: cell-based
Details: Homo sapiens, tested once in technical triplicates
Method: 1,000 cells per 36 μl were seeded in each well in 384-well plates. Lethal compounds were dissolved, and a twofold, 12-point dilution series was prepared in DMSO. Compound solutions were further diluted with media at 1:25, and 4 μl per well of the diluted solutions was added to cell cultures immediately after cells were seeded. […] When other cell-death-modulating compounds (100 nM sodium selenite, 1 μM cerivastatin, 100 μg/mL mevalonic acid) were used in cotreatments, they were supplemented to cell culture for 24 h before lethal compounds were added to cell culture, after which cells were further incubated for 24 h at 37° C. under 5% CO2. On the day of the viability measurement, we added 10 μl per well of 50% Alamar Blue diluted in media (Life Technologies) and further incubated the cells at 37° C. for 6 h. Fluorescence intensity (excitation/emission: 530/590) was measured with a Victor 3 plate reader (PerkinElmer), and the normalized viability was calculated as VL=(IL−I0)/(IV−I0), where VL, I0, IV, and IL are the normalized viability and the raw fluorescence intensities from the wells containing media, cells treated with a vehicle (negative control), and cells with the lethal compound (L), respectively. When the effect of a chemical modulator (M) on L was calculated, we instead used the equation VL|M=(IM,L−I0)/(IM,V−I0), where VL|M, IM,L and IM,V are the normalized viability, and fluorescence intensity from cells treated with […], respectively. The viability was typically measured in biological triplicate unless otherwise specified. A representative dose-response curve, the mean and standard error of normalized viability from one replicate were plotted. HT-1080 viability after modulator treatments corresponding to FIG. 3C and FIGS. 5E-5F is available in FIGS. 19A-19C.
Their lethality was tested once in HT-1080 cells in technical triplicates.

Structure (SMILES)	EC50 [µg/mL]
N/C(=N\OC(=O)C1CCCN1C(=O)c1cccs1)C(c1ccccc1)c1ccccc1 (stereo not drawn) [EN6]	> 20
COc1ccccc1C/C(N)=N/OC(=O)CC(c1ccccc1)c1ccccc1 [CB122]	0.98 (≈ 2.52 µM)
N/C(Cc1ccc(Cl)c(Cl)c1)=N\OC(=O)COc1ccccc1 [CB48]	> 20
CC(=O)O/N=C(\N)Cc1csc2ccc(Cl)cc12 [MB5]	> 20
COc1ccccc1C/C(N)=N/OC(=O)COc1cccc(C)c1C [CB123]	> 20
CC(Oc1cccc(Cl)c1)C(=O)O/N=C(\N)Cc1ccc(Cl)cc1Cl (stereo not drawn) [CB137]	> 20
CCC(C(=O)O/N=C(\N)Cc1ccc(Cl)cc1Cl)c1ccccc1 (stereo not drawn) [CB98]	4.46 (≈ 12.2 µM)
COc1ccccc1C/C(N)=N/OC(=O)COc1cccc2ccccc12 [CB13]	> 20
CC(Oc1cccc(Cl)c1)C(=O)O/N=C(\N)Cc1cccc2ccccc12 (stereo not drawn) [CB134]	> 20
Cc1cc(Br)ccc1OCC(=O)O/N=C(\N)Cc1ccc([N+](=O)[O-])cc1 [CB104]	> 20
Cc1ccc(OCC(=O)ON[C@H](N)Cc2cccs2)cc1C [CB94]	> 20
CC1=C(Br)C(C)N(C/C(N)=N/OC(=O)CC2CC3CCC2C3)N1 (stereo not drawn) [ZE12]	> 20
COc1ccc(OCC(=O)O/N=C(\N)Cc2cccs2)cc1 [CB74]	> 20
Cc1cccc(OCC(=O)O/N=C(\N)Cc2ccc([N+](=O)[O-])cc2)c1C [CB118]	> 20
Cc1ccccc1OCC(=O)O/N=C(\N)Cc1cccc2ccccc12 [CB46]	> 20
Cc1cc(OCC(=O)O/N=C(\N)Cc2cccs2)ccc1Br [CB38]	> 20
N/C(Cc1ccc(Cl)cc1Cl)=N\OC(=O)Cc1ccccc1 [CB127]	> 20
Cc1cc(Cl)ccc1OCC(=O)O/N=C(\N)Cc1ccc([N+](=O)[O-])cc1 [CB125]	> 20
COc1ccccc1C/C(N)=N/OC(=O)COc1cccc(C)c1 [CB26]	> 20
N/C(Cc1ccc(Cl)cc1Cl)=N\OC(=O)/C=C/c1ccccc1Cl [VM3]	8.51 (≈ 22.2 µM)
COc1ccccc1CC(=O)O/N=C(\N)Cc1cccc2ccccc12 [CB108]	> 20
N/C(Cc1ccc([N+](=O)[O-])cc1)=N\OC(=O)Cc1ccccc1 [CB80]	> 20
COc1ccc(C/C(N)=N/OC(=O)CCc2ccccc2)cc1 [CB63]	> 20
Cc1ccccc1OCC(=O)O/N=C(\N)Cc1ccc(Cl)cc1 [CB3]	> 20
N/C(Cc1ccc(-c2csnn2)cc1)=N\OC(=O)C1CC1 [MB7]	> 20

Structure (SMILES)	EC50 [µg/mL]
Cc1ccccc1NC(=O)C/C(N)=N/OC(=O)C1CCCN1C(=O)c1ccco1 (stereo not drawn) [EN5]	> 20
CCc1ccc(OCC(=O)O/N=C(\N)Cc2ccc([N+](=O)[O-])cc2)c(Br)c1 [CB129]	> 20
Cc1ccc(OCC(=O)O/N=C(\N)Cc2cccc3ccccc23)cc1C [CB89]	> 20
CCc1ccc(OCC(=O)O/N=C(\N)Cc2cccc3ccccc23)cc1 [CB81]	> 20
CCC(C(=O)O/N=C(\N)Cc1cccc2ccccc12)c1ccccc1 (stereo not drawn) [CB111]	10.7 (≈ 30.9 µM)
COc1ccc(CC(=O)O/N=C(\N)Cc2ccc(OC)c(OC)c2)cc1 [CB124]	> 20
CC(=O)O/N=C(\N)COc1ccc(-c2nnco2)cc1 [MB10]	> 20
N/C(Cc1cccs1)=N\OC(=O)C12CC3CC(CC(C3)C1)C2 [CB69]	2.09 (≈ 6.56 µM)
NC(/C=C/c1cc(C(F)(F)F)cc(C(F)(F)F)c1)=N\OC(=O)/C=C/c1ccccc1 [MB1]	> 20
N/C(Cc1ccc(Cl)cc1Cl)=N\OC(=O)CC1CCCCC1 [CB128]	> 20
CC(C)(C)CC(=O)O/N=C(\N)C1(c2ccc(Cl)cc2Cl)CC1 [MB9]	> 20
COc1ccccc1C/C(N)=N/OC(=O)COc1ccc2ccccc2c1 [CB61]	> 20
COc1ccccc1C/C(N)=N/OC(=O)COc1ccc(Cl)cc1 [CB52]	> 20
Cc1ccc(OCC(=O)O/N=C(\N)Cc2ccc([N+](=O)[O-])cc2)c(C)c1 [CB16]	> 20
COc1ccc(C/C(N)=N/OC(=O)Cc2ccccc2)cc1OC [CB65]	> 20
Cc1cc(C)cc(C(=O)NCC(=O)O/N=C(\N)CC(=O)Nc2ccc(Cl)cc2)c1 [EN11]	> 20
CC(C)(C)C(=O)O/N=C(\N)COc1ccc(Cl)cc1Cl [MB11]	> 20
COc1ccccc1C/C(N)=N/OC(=O)Cc1ccc(Cl)cc1 [CB12]	> 20
Cc1ccc(OCC(=O)O/N=C(\N)Cc2ccc(Cl)cc2Cl)cc1C [CB87]	> 20
Cc1nn(C/C(N)=N/OC(=O)C(C)C)c(C)c1[N+](=O)[O-] [ZE4]	> 20
Cc1ccc(OCC(=O)O/N=C(\N)Cc2ccc([N+](=O)[O-])cc2)c(Br)c1 [CB25]	> 20
COc1ccccc1C/C(N)=N/OC(=O)COc1ccc(Br)cc1 [CB41]	> 20
N/C(Cc1ccc(Cl)cc1)=N\OC(=O)COc1ccc(Br)cc1 [CB42]	> 20
COc1ccccc1C/C(N)=N/OC(=O)COc1ccccc1C [CB33]	> 20
Cc1cc(Br)ccc1OCC(=O)O/N=C(\N)Cc1cccc2ccccc12 [CB107]	> 20

Structure (SMILES)	EC50 [µg/mL]
N/C(Cc1ccc([N+](=O)[O-])cc1)=N\OC(=O)CC(c1ccccc1)c1ccccc1 [CB115]	2.42 (≈ 6 µM)
N/C(Cc1cccc2ccccc12)=N\OC(=O)Cc1cccs1 [CB109]	> 20
Cc1ccccc1OCC(=O)O/N=C(\N)Cc1ccc(Cl)cc1Cl [CB28]	> 20
Cc1ccc(OCC(=O)O/N=C(\N)Cc2ccc([N+](=O)[O-])cc2)cc1C [CB92]	> 20
N/C(Cc1ccc([N+](=O)[O-])cc1)=N\OC(=O)CCC1CCCCC1 [CB96]	> 20
O=C(O/N=C1\CCCCCN1)C(Cl)Cl [EN3]	> 20
CCc1nc(C)ccc1OC/C(N)=N/OC(C)=O [CB1]	> 20
COc1ccc(/C=C/C(=O)O/N=C2\CCCCCN2)cc1OC [EN2]	10.5 (≈ 33 µM)
CC(C)(C)c1ccc(OCC(=O)O/N=C(\N)Cc2ccc([N+](=O)[O-])cc2)cc1 [CB7]	> 20
Cc1cc(C)c(C)c(OCC(=O)O/N=C(\N)Cc2cccc3ccccc23)c1 [CB121]	> 20
N/C(Cc1ccc(Cl)cc1)=N\OC(=O)CCc1ccccc1 [CB55]	> 20
CC(C)(C)C(=O)O/N=C(\N)Cc1cccc2ccccc12 [MB13]	> 20
CCC(=O)O/N=C(\N)Cn1nc(C)c([N+](=O)[O-])c1C [CB148]	> 20
CC(C)(C)C(=O)O/N=C(\N)COc1ccc(C(C)(C)C)cc1 [MB14]	2.6 (≈ 8.49 µM)
CC(C)c1ccc(OCC(=O)O/N=C(\N)Cc2ccc(Cl)cc2Cl)cc1 [CB88]	> 20
N/C(Cc1ccc([N+](=O)[O-])cc1)=N\OC(=O)COc1ccc(Br)cc1 [CB43]	> 20
COc1ccc(C/C(N)=N/OC(=O)Cc2ccc(OC)c(OC)c2)cc1 [CB60]	> 20
N/C(Cc1ccc([N+](=O)[O-])cc1)=N\OC(=O)Cc1cccs1 [CB103]	> 20
COc1ccccc1C/C(N)=N/OC(=O)COc1ccc(C)cc1Br [CB22]	> 20
CC(C)(C)C(=O)O/N=C(\N)CS(=O)(=O)c1ccc(Cl)cc1 [MB15]	> 20
Cc1nn(C/C(N)=N/OC(=O)CC23CC4CC(CC(C4)C2)C3)c(C)c1Br [ZE2]	15.6 (≈ 36.9 µM)
CC(C)(C)c1ccc(C(=O)O/N=C(\N)Cc2cccs2)cc1 [B02]	3.3 (≈ 10.4 µM)
CC(Cl)(Cl)C(=O)O/N=C1\CCCCCN1 [EN4]	> 20
Cc1cc(OCC(=O)O/N=C(\N)Cc2ccc([N+](=O)[O-])cc2)cc(C)c1Br [CB95]	> 20
CC(=O)O/N=C(N)/C(=N/OC(C)=O)c1nc2ccccc2[nH]1 [CB19]	> 20

Structure (SMILES)	EC50 [µg/mL]
COc1ccccc1C/C(N)=N/OC(=O)COc1cc(C)cc(C)c1C [CB126]	9.3 (≈ 26.1 µM)
COc1ccc(C[C@@H](N)NOC(=O)C(c2ccccc2)c2ccccc2)cc1OC [CB54]	> 20
N/C(Cc1ccc(Cl)cc1Cl)=N\OC(=O)Cc1ccc(Cl)cc1 [VM2]	> 20
Cc1cccc(OCC(=O)O/N=C(\N)Cc2cccc3ccccc23)c1 [CB44]	> 20
CC(=O)O/N=C(/N)Cn1nc(C)c([N+](=O)[O-])c1C [CB146]	> 20
COc1ccc(CC(=O)O/N=C(\N)Cc2ccc(Cl)cc2Cl)cc1OC [CB59]	> 20
Cc1ccc(CC(=O)O/N=C(\N)Cc2ccc([N+](=O)[O-])cc2)cc1 [CB139]	> 20
Cc1cc(C(F)(F)F)nn1C/C(N)=N/OC(=O)CC12CC3CC(CC(C3)C1)C2 [ZE8]	> 20
N/C(Cc1ccc(Cl)cc1)=N\OC(=O)COc1ccccc1Cl [CB4]	> 20
COc1ccc(C/C(N)=N/OC(=O)Cc2ccc(Cl)cc2)cc1OC [CB8]	> 20
COc1ccc(CC(=O)O/N=C(\N)Cc2cccc3ccccc23)cc1OC [CB64]	> 20
N/C(Cc1ccc(Cl)cc1Cl)=N\OC(=O)COc1ccccc1 [CB32]	> 20
Cc1ccc(OCC(=O)O/N=C(\N)Cc2cccs2)c(Br)c1 [CB23]	> 20
COc1ccc(C/C(N)=N/OC(=O)COc2ccc3ccccc3c2)cc1 [CB53]	> 20
COc1ccccc1CC(=O)O/N=C(\N)Cc1ccc([N+](=O)[O-])cc1 [CB99]	> 20
N/C(Cc1ccc([N+](=O)[O-])cc1)=N\OC(=O)COc1ccc(Cl)cc1Br [CB144]	> 20
COc1ccccc1CC(=O)O/N=C(\N)Cc1ccc(Cl)cc1Cl [CB97]	> 20
COc1ccc(C/C(N)=N/OC(=O)COc2ccc(C)c(C)c2)cc1 [CB91]	> 20
N/C(Cc1ccc([N+](=O)[O-])cc1)=N\OC(=O)C1CCCCC1 [CB2]	> 20
N/C(COc1cccc(Cl)c1)=N\OC(=O)CCn1cc(C(F)(F)F)ccc1=O [MB16]	> 20
Cc1nn(C/C(N)=N/OC(=O)C2CCCCC2)c(C)c1Br [ZE1]	> 20
N/C(Cc1ccc(Cl)cc1Cl)=N\OC(=O)Cc1cccs1 [CB100]	> 20
COc1ccc(C/C(N)=N/OC(=O)Cc2ccc(Cl)cc2)cc1 [CB11]	> 20
N/C(Cc1ccc([N+](=O)[O-])cc1)=N\OC(=O)COc1ccccc1Cl [CB67]	> 20
